Measurements taken from patent US8283353B2, “Fused ring compound and use thereof” (Takeda Pharmaceutical Company Limited, priority 2009, dated 2012).

The molecules below were run against T1, human AT1 receptor (Homo sapiens, UniProt P30556) (assay: AT1 receptor antagonistic activity: [125I]-angiotensin II binding assay on human AT1 receptor-expressing CHO-K1 cellular membrane fraction). Settings: 22.5 pM [125I]-angiotensin II, 1 hr room temperature.
T1 construct: expressed in transfected cells; membrane fraction
T1 sequence (P30556 1-359): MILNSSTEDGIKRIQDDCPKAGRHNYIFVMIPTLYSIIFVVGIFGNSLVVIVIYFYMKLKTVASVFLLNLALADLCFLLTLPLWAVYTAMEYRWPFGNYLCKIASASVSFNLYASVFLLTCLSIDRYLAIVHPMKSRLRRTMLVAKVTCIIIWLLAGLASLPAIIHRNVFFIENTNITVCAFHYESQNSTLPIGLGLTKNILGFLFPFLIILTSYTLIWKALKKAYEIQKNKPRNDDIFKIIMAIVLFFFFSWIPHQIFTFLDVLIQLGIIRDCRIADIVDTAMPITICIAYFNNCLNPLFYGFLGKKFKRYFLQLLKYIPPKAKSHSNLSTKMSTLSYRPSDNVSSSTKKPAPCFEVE
Procedure: CHO-K1 cell (RIKEN, Japan) capable of stable expression of human AT1 receptor was cultured, recovered, suspended in homogenize buffer (10 mM NaHCO3 (pH 7.4), 5 mM EDTA, 1× Complete EDTA free) [manufactured by Roche, Switzerland], and homogenized. The homogenate was centrifuged at low-speed (900×g, 10 min, 4° C.), and the supernatant was recovered and ultracentrifuged (90,000×g, 1 hr, 4° C.). The supernatant was discarded, and the pellets were resuspended in suspension buffer (50 mM Tris (pH 7.4), 1 mM EDTA, 1× Complete EDTA free).
(9 μg) in the presence of AT1 membrane and test compound in 100 μl, (total reaction volume) of reaction buffer (50 mM Tris (pH 7.4), 10 mM MgCl2 supplemented or not supplemented with 0.3 mg/mL fatty acid-free bovine serum albumin [manufactured by Wako Pure Chemical Industries, Ltd., Japan]). The reaction mixture was incubated in 96 well polypropylene plate for 1 hr at room temperature, and the reaction was quenched by rapid filtration (96 well cell harvester) through a GF/C filter treated with wash buffer (50 mM Tris (pH 7.4)). Subsequently, the filter was washed 5 times with 0.3 mL of ice-cooled wash buffer. […] Total binding was measured in the presence of 1% DMSO and nonspecific binding was measured in the presence of […] Candesartan.

Q: How did the IC50 turn out when `CCCCc1c(Cc2ccc(-c3ccccc3-c3noc(=O)[nH]3)cc2)c(=O)n(C2CCOC(C)C2)c2ncnn12` (stereo not shown) [Example 160, 7-butyl-4-(2-methyltetrahydro-2H-pyran-4-yl)-6-{[2′-(5-oxo-4,5-dihydro-1,2,4-oxadiazol-3-yl)biphenyl-4-yl]methyl}[1,2,4]triazolo[1,5-a]pyrimidin-5(4H)-one] was run?
A: The IC50 was 1.3 nM.

Q: Which IC50 does the source give for `CCCc1c(Cc2ccc(-c3ccccc3-c3noc(=O)[nH]3)cc2)c(=O)n([C@H]2CC[C@H](OC(C)C(C)(C)O)CC2)c2ncnn12` (single isomer, unassigned) [Example 318, 4-[trans-4-(2-hydroxy-1,2-dimethylpropoxy)cyclohexyl]-6-{[2′-(5-oxo-4,5-dihydro-1,2,4-oxadiazol-3-yl)biphenyl-4-yl]methyl}-7-propyl[1,2,4]triazolo[1,5-a]pyrimidin-5(4H)-one (retention time: short)] here?
A: Its IC50 is 1.8 nM.

These molecules were tested against T2, human PPARγ (Homo sapiens, UniProt P37231) (assay: PPARγ agonistic activity: luciferase reporter assay in PPARγ:RXRα:4ERPP/CHO-K1 cells). Settings: CHO-K1, test compound 10^−6 M; luciferase activity of control compound X (1 μM) = 100%, non-administration group = 0%.
T2 construct: expressed in transfected cells
T2 sequence (P37231 1-477 isoform P37231-2): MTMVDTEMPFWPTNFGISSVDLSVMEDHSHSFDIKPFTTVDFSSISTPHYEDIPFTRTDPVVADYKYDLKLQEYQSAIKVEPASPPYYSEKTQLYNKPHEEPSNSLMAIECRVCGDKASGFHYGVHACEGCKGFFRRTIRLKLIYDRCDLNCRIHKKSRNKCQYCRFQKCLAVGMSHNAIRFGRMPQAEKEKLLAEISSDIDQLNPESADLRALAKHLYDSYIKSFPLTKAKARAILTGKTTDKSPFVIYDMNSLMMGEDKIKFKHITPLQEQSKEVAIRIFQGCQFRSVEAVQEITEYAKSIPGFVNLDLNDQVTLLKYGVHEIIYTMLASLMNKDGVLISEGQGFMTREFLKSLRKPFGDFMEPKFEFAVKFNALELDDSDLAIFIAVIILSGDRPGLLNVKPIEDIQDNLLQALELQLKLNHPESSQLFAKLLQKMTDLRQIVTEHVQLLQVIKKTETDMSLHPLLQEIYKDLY
T2 sequence (P19793 1-462 partner): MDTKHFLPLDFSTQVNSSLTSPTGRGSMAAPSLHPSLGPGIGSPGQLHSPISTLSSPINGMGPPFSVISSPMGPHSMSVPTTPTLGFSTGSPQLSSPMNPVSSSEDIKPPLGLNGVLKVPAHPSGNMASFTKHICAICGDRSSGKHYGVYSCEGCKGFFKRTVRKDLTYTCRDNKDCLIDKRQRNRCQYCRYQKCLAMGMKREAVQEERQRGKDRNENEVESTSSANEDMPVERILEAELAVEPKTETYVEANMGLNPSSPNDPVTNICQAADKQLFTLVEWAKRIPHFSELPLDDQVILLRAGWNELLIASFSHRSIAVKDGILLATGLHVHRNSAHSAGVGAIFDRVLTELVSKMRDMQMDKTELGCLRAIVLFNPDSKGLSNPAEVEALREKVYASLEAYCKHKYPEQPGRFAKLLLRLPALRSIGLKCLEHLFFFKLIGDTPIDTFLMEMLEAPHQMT
Type: cell-based
From the text: A CHO-K1 cell cultured in a 150 cm^2 cell culture flask [manufactured by Corning Costar Corporation, USA] comprising Ham's F12 medium [manufactured by INVITROGEN, USA] supplemented with 10% fetal bovine serum [manufactured by INVITROGEN, USA] was taken off by treating with 0.5 g/L trypsin-0.2 g/L EDTA (ethylenediamine tetraacetate) [manufactured by Life Technologies, Inc., USA], and then the cell was washed with PBS (Phosphate-buffered saline) [manufactured by INVITROGEN, USA], centrifuged (1000 rpm, 5 minutes) and suspended in PBS. Subsequently, DNA was introduced into the cell under the conditions shown below using GENE PULSER [manufactured by Bio-Rad Laboratories, USA].
Namely, to a cuvette having a 0.4 cm gap were added 8×10^6 cells and 10 μg of plasmid pVgRXR2-hPPARγ obtained in the above-mentioned (4) and 10 μg of reporter plasmid pGL3-4ERPP-TK neo obtained in the above-mentioned (3), which was subjected to electroporation at the voltage of 0.25 kV under the capacitance of […] Subsequently, the cell was transferred into a F12 medium comprising 10% fetal bovine serum and cultured for 24 hours, and then the cell was taken off again and centrifuged. Then, the pellet was suspended in Ham's F12 medium comprising 10% fetal bovine serum supplemented with 500 μg/ml of Geneticin [manufactured by INVITROGEN, USA] and 250 μg/ml of Zeocin [manufactured by INVITROGEN, USA]. The obtained suspension was diluted to the density of 10^4 cells/ml and inoculated in a 96-well plate [manufactured by Corning Costar Corporation, USA], which was cultured in a CO2 gas incubator at 37° C., whereby obtaining a Geneticin- and Zeocin-resistant transformant.
Subsequently, after the transformed cell line thus obtained was cultured in a 24-well plate [manufactured by Corning Costar Corporation, USA], a cell line in which expression of the luciferase was induced, i.e., PPARγ:RXRα:4ERPP/CHO-K1 cell was selected by the addition of 10 μM pioglitazone hydrochloride.
PPARγ:RXRα:4ERPP/CHO-K1 cells obtained in the above-mentioned (5) were cultured in F12 medium [manufactured by INVITROGEN, USA] containing 10% fetal bovine serum [manufactured by MOREGATE, Australia], seeded in a 96 well half-area white plate [manufactured by Corning Coster Corporation, USA] at 5×10^3 cells/well, and cultured in a CO2 incubator at 37° C. overnight.
Then, the medium was removed from the 96 well half-area white plate, hamF12 medium containing 0.1% fatty acid-free bovine serum albumin (BSA) (45 μl) and a test compound (5 μl) were added, and the mixture was cultured in the CO2 incubator at 37° C. for 1 day. After removing the medium, Picagene 7.5 [manufactured by Dai Nippon Inki, Japan] (20 μl) diluted 2-fold with HBSS (HANKS' BALANCED SALT SOLUTION) [manufactured by BIO […], USA] was added, and the mixture was stirred. Using 1420 ARVO Multilabel Counter [manufactured by PerkinElmer, USA], luciferase activity was measured. The percentage (%) was calculated from the luciferase activity of the test compound when the luciferase activity of the control compound (compound X: 5-[3-(4-{[2-(2-furyl)-5-methyl-1,3-oxazol-4-yl]methoxy}-3-methoxyphenyl)propyl]-1,3-oxazolidine-2,4-dione) (1 μM) was taken as 100% and the luciferase activity of the test compound non-administration group was taken as 0%.

Q: Which activation at 1 µM does the source give for `CCCc1c(Cc2ccc(-c3ccccc3-c3noc(=O)[nH]3)cc2F)c(=O)n(C2CCOC2)c2nc(C)nn12` (stereo not shown) [Example 120, 6-{[3-fluoro-2′-(5-oxo-4,5-dihydro-1,2,4-oxadiazol-3-yl)biphenyl-4-yl]methyl}-2-methyl-7-propyl-4-(tetrahydrofuran-3-yl)[1,2,4]triazolo[1,5-a]pyrimidin-5(4H)-one] here?
A: Its activation at 1 µM is 18%.

Q: How did the activation at 1 µM turn out when `CCCc1c(Cc2ccc(-c3ccccc3-c3noc(=O)[nH]3)cc2)c(=O)n([C@H]2CC[C@H](OCC(C)O)CC2)c2ccnn12` (single isomer, unassigned) [Example 440, 4-[trans-4-(2-hydroxypropoxy)cyclohexyl]-6-{[2′-(5-oxo-4,5-dihydro-1,2,4-oxadiazol-3-yl)biphenyl-4-yl]methyl}-7-propylpyrazolo[1,5-a]pyrimidin-5(4H)-one (optically active form, retention time: short)] was run?
A: Its activation at 1 µM is 16%.

Q: How did the activation at 1 µM turn out when `CCCc1c(Cc2ccc(-c3ccccc3-c3noc(=O)[nH]3)cc2)c(=O)n([C@H]2CC[C@@H](OCC(C)(C)O)CC2)c2ncnn12` [Example 158, 4-[cis-4-(2-hydroxy-2-methylpropoxy)cyclohexyl]-6-{[2′-(5-oxo-4,5-dihydro-1,2,4-oxadiazol-3-yl)biphenyl-4-yl]methyl}-7-propyl[1,2,4]triazolo[1,5-a]pyrimidin-5(4H)-one] was run?
A: The activation at 1 µM was 37%.

Q: For `CCCc1c(Cc2ccc(-c3ccccc3-c3noc(=O)[nH]3)cc2F)c(=O)n([C@H]2C[C@H](OCC(C)(C)O)C2)c2nc(C)nn12` [Example 403, 6-{[3-fluoro-2′-(5-oxo-4,5-dihydro-1,2,4-oxadiazol-3-yl)biphenyl-4-yl]methyl}-4-[trans-3-(2-hydroxy-2-methylpropoxy)cyclobutyl]-2-methyl-7-propyl[1,2,4]triazolo[1,5-a]pyrimidin-5(4H)-one], which activation at 1 µM is on record?
A: Its activation at 1 µM is 17%.

Q: With `CCCc1c(Cc2ccc(-c3ccccc3-c3noc(=O)[nH]3)cc2F)c(=O)n([C@H]2C[C@@H](OCC(C)(C)O)C2)c2nc(C)nn12` [Example 404, 6-{[3-fluoro-2′-(5-oxo-4,5-dihydro-1,2,4-oxadiazol-3-yl)biphenyl-4-yl]methyl}-4-[cis-3-(2-hydroxy-2-methylpropoxy)cyclobutyl]-2-methyl-7-propyl[1,2,4]triazolo[1,5-a]pyrimidin-5(4H)-one] as the molecule, how does the activation at 1 µM read?
A: Its activation at 1 µM is 28%.

Q: For `CCCc1c(Cc2ccc(-c3ccccc3-c3noc(=O)[nH]3)cc2)c(=O)n([C@H]2CC[C@H](OCC(C)(C)O)CC2)c2ncnn12` [Example 381, 4-[trans-4-(2-hydroxy-2-methylpropoxy)cyclohexyl]-6-{[2′-(5-oxo-4,5-dihydro-1,2,4-oxadiazol-3-yl)biphenyl-4-yl]methyl}-7-propyl[1,2,4]triazolo[1,5-a]pyrimidin-5(4H)-one], which activation at 1 µM is on record?
A: Its activation at 1 µM is 32%.

Q: How did the activation at 1 µM turn out when `CCCc1c(Cc2ccc(-c3ccccc3-c3noc(=O)[nH]3)cc2)c(=O)n([C@H]2CC[C@H](OCC(C)(C)O)CC2)c2ccnn12` [Example 413, 4-[trans-4-(2-Hydroxy-2-methylpropoxy)cyclohexyl]-6-{[2′-(5-oxo-4,5-dihydro-1,2,4-oxadiazol-3-yl)biphenyl-4-yl]methyl}-7-propylpyrazolo[1,5-a]pyrimidin-5(4H)-one] was run?
A: The activation at 1 µM was 25%.

Q: Which activation at 1 µM does the source give for `CCCc1c(Cc2ccc(-c3ccccc3-c3noc(=O)[nH]3)cc2)c(=O)n([C@H]2CC[C@H](OCC(C)O)CC2)c2ccnn12` (relative stereo) [Example 419, 4-[trans-4-(2-hydroxypropoxy)cyclohexyl]-6-{[2′-(5-oxo-4,5-dihydro-1,2,4-oxadiazol-3-yl)biphenyl-4-yl]methyl}-7-propylpyrazolo[1,5-a]pyrimidin-5(4H)-one] here?
A: Its activation at 1 µM is 21%.
